# Data taken from PMC9794833, “Ligand recognition and activation of neuromedin U receptor 2” (Nature Communications, 2022).
# Where “and” joins values, the source holds several entries; their conditions need not be identical. Equal entries are not always repeated. Where two headings read alike, the source gives them in different places. Where no end group is shown, it is not given here.
# Legend:
# [1] = molecular target: T1, NMU2 F305A (Homo sapiens, UniProt Q9GZQ4, F305A); test: TRUPATH assay, NMU2 mutant F305A; type: cell-based
# T1 construct: HA signal peptide (N); expressed in transfected cells; host or cells: HEK 293F
# T1 sequence (Q9GZQ4 whole entry F305A): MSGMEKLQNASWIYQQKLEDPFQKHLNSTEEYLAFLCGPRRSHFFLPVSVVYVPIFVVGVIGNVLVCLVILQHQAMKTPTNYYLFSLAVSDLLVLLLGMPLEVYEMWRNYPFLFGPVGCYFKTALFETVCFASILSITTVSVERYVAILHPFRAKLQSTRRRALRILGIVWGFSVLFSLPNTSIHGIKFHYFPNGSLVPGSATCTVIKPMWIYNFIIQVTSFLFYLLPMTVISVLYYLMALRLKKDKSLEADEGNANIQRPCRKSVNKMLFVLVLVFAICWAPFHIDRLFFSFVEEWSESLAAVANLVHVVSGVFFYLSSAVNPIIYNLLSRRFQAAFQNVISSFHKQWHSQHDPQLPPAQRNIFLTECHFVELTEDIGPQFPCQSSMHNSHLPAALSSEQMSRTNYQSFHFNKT
# Description: The plasmids of Gαi1, Gβ3, and Gγ9 used for the TRUPATH assay were purchased from Addgene (TRUPATH Kit, #1000000163). NMU2 constructs of WT and mutants were constructed into a PTT5 vector (Invitrogen) with an N-terminal HA signal peptide followed by a Flag tag. HEK 293F cells were transiently transfected with WT or mutants of NMU2, Gαi1, Gβ3, and Gγ9 at an […] ratio of 4:1:1:1 with a total of 3500 ng plasmid DNA using a transfection reagent (PEI MAX 2000, Polysciences) and cultivated at 37 °C with 5 % CO2. Cells were collected after 48-h transfection. The expression level of the receptor was measured by incubating 10 μl cells with 15 μl TBS buffer supplemented with 4% bovine serum albumin, 20% (v/v) viability staining solution7-AAD (Invitrogen, Cat#00-6993-50), and ANTI-FLAG M2-FITC antibody (Sigma, F4049; 1:100 diluted by TBS) at 4 °C for 20 min. After incubation, 175 μl TBS buffer was added, and the fluorescence signal on the cell surface was detected by an FCM (flow cytometry) reader (Millipore). The cells were diluted with 1× HBSS (Hank’s balanced salt solution) balanced buffer supplemented with 25 mM HEPES, pH 7.4, and seeded onto the 96-well opaque cell culture plates (Beyotime) at a density of 18,000 cells per well by 60 μl. Freshly prepared 50 μM coelenterazine 400a (Nanolight Technologies) was added into the well by 10 μl. After a 5 min equilibration time in the darkness, plates were then read in a Synerg^TM H1 microplate reader (BioTek) with excitation at 395 nm and emission at 410 and 515 nm by serially three times. Then, 30 μl of 3.3× agonists were added into the wells with a gradient final concentration from 10^−4–10^−13 M. Plates were read immediately again by serially five times. Data were processed and analyzed following the method in the literature by using GraphPad Prism 8.0.
# [2] = molecular target: T2, NMU2 engineered construct (Homo sapiens, UniProt Q9GZQ4); test: TRUPATH assay, engineered NMU2 construct used for cryo-EM; type: cell-based
# T2 construct: HA signal peptide (N); Flag (N); PreScission protease site (C); twin-strep (C); expressed in transfected cells
# T2 sequence (Q9GZQ4 1-355 limits assumed, change not shown): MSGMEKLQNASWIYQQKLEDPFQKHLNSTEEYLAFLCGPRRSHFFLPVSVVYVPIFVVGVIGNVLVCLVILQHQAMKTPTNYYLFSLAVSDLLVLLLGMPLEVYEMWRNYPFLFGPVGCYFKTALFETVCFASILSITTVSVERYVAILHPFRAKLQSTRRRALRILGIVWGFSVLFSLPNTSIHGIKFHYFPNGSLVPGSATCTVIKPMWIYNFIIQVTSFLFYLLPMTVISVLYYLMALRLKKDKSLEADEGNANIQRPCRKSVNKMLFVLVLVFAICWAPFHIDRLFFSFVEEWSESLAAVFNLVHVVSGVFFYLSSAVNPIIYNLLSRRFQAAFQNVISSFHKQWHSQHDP
# Description: To facilitate expression and purification of the NmU-25–NMU2–Gi1 complex, a hemagglutinin (HA) signal peptide followed by a flag tag was introduced at the N terminus of NMU2, while the flexible C-terminal residues of the receptor (Q356-T415) were replaced by a PreScission protease site followed by a twin-strep affinity tag (Supplementary Fig. 1a, b). […] Dominant-negative Gαi1 (DNGαi1) containing five mutations (S47C, G202T, G203A, E245A, and A326S) was used to improve the stability of the complex as these mutations lead to a preference for a nucleotide-free state, and prevent the dissociation of Gβγ from the heterotrimer[20],[21]. Over 8700 movies were collected, and the structure of the NmU-25–NMU2–Gi1 complex was determined by cryo-EM single-particle analysis at a global nominal resolution of 3.3 Å (Supplementary Fig. 2a–f, Supplementary Table 1). […]
# The plasmids of Gαi1, Gβ3, and Gγ9 used for the TRUPATH assay were purchased from Addgene (TRUPATH Kit, #1000000163). […] The expression level of the receptor was measured by incubating 10 μl cells with 15 μl TBS buffer supplemented with 4% bovine serum albumin, 20% (v/v) viability staining solution7-AAD (Invitrogen, Cat#00-6993-50), and ANTI-FLAG M2-FITC antibody (Sigma, F4049; 1:100 diluted by TBS) at 4 °C for 20 min. […] Data were processed and analyzed following the method in the literature by using GraphPad Prism 8.0.
substance,measurement,setting,value
FRVDEEFQSPFASQSRGYFLFRPRN-NH2 [NmU-25],EC50 ratio EC50(mutant)/EC50(WT),[1],77
same,Span (window between Emax and minimal agonist response),[1],95±11 % of WT
same,"G protein activation (TRUPATH), dose-response point",[1]; Log [agonist] M -4,46.0579 and 58.1697 and 76.8594 and 61.8818
same,ΔpEC50 (from WT),[1]; individual experiments,-2.165 and -2.457 and -1.8628 and -2.734
same,Emax,[1]; peer review file,83%
same,potency reduction,[1]; peer review file,33 fold
same,EC50,[1]; read-out: EC50,2600 nM
same,EC50,[1]; read-out: pEC50 mean±SEM (converted),2630 nM
same,"G protein activation (TRUPATH), dose-response point",[2]; Log [agonist] M -5,104.095 and 133.885 and 136.246
same,"G protein activation (TRUPATH), dose-response point",[2]; Log [agonist] M -6,76.3981 and 114.895 and 125.038
